# Legend:
# [1] = biological target: T1, GST-tagged TRPM6-(1730–end) (Homo sapiens, UniProt Q9BX84); assay: Peptide pull-down, TRPM6-(1730–end); format: binding; conditions: HEK-293 lysate 1–5 mg, 3 μg biotinylated peptide, 10 min at 4°C, streptavidin beads; anti-GST immunoblot
# T1 construct: E. coli-purified GST-tagged TRPM6-(1730–end); made in house; host or cells: E. coli BL21
# T1 sequence (Q9BX84 1730-2022 limits assumed): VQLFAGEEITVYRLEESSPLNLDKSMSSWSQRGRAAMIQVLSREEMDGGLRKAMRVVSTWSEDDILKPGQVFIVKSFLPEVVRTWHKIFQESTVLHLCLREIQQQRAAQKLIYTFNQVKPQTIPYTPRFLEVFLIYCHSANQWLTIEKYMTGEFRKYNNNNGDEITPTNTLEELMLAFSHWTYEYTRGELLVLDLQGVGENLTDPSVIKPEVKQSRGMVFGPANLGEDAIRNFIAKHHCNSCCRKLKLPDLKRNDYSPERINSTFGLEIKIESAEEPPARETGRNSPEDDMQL
# Experimental: (§1) The peptides biotin-C6-[…]-TIPFTPVQLFAGEEITV (wild-type) and biotin-C6-LKSPQE-[…] (mutant) were purchased from GL Biochem. For a peptide pull-down, 1–5 mg of lysate was incubated with 3 μg of the respective peptide for 10 min at 4°C under gentle agitation, followed by 5 min of incubation with 10–20 μl of streptavidin beads at 4°C. The immunoprecipitates were washed three times with lysis buffer containing 0.15 M NaCl and then twice with buffer A. Proteins were eluted by resuspending washed immunoprecipitates in 30 μl of SDS sample buffer.
# (Figure 2A). We next utilized fluorescence polarization technology, a sensitive method to evaluate interactions between proteins and peptides. Using this methodology, we first evaluated how polarization of a fluorescently labelled peptide encompassing the dimerization motif was affected by titration of TRPM6-(1730–end) (which lacks the dimerization motif). […]
# Figure 2 Identification of dimerization motif residues in TRPM6 (A) Structural model of TRPM7 α-kinase depicting the N-terminal non-catalytic α-helix of one monomer that interacts with the kinase segment of the other monomer. (B) Fluorescence polarization analysis of wild-type (WT) and mutant (Mut) dimerization motif peptides with E. coli-purified GST-tagged TRPM6-(1730–end). […] The samples were analysed by immunoblotting with anti-GST antibody (top panel). […]
# [2] = system: GST-tagged TRPM6-(1730–end) L1743A; assay: Peptide pull-down, L1743A mutant; format: binding, human; conditions: HEK-293 lysate, 3 μg peptide, 4°C, anti-GST immunoblot
# Experimental: as §1, with “buffer. […]” for “buffer.”
# (§2) Figure 3 Analysis of the dimerization pocket residues (A) Structural model of TRPM6 based on TRPM7 α-kinase depicting the binding of Leu^1718 and Leu^1721 to other residues in the α-kinase domain. […] The samples were analysed by immunoblotting with anti-GST antibody (top panel). […] (C) Fluorescence polarization analysis of the dimerization motif peptide with E. coli purified GST-tagged TRPM6-(1730–end) and indicated mutants. […] Proteins were separated by SDS/PAGE, stained with Coomassie Blue (top and middle panels) and MBP phosphorylation was detected by autoradiography (bottom panel). […] Proteins were separated by SDS/PAGE, stained with Coomassie Blue (top and middle gels) and MBP phosphorylation was detected by autoradiography (bottom gel). […]
# [3] = system: GST-tagged TRPM6-(1730–end) A1836N; assay: Peptide pull-down, A1836N mutant; format: binding, human; conditions: HEK-293 lysate, 3 μg peptide, 4°C, anti-GST immunoblot
# Experimental: as §1, with “buffer. […]” for “buffer.”
# as §2
# [4] = system: GST-tagged TRPM6-(1730–end) L1919Q; assay: Peptide pull-down, L1919Q mutant; format: binding, human; conditions: HEK-293 lysate, 3 μg peptide, 4°C, anti-GST immunoblot
# Experimental: as §1, with “buffer. […]” for “buffer.”
# as §2
# [5] = system: full-length TRPM6 L1718A+L1721A; assay: Peptide pull-down, full-length TRPM6 L1718A+L1721A; format: binding, human; conditions: full-length L1718A+L1721A TRPM6, HEK-293 lysate, 3 μg peptide, 4°C; anti-FLAG immunoblot
# Experimental: as §1
# Figure 2 Identification of dimerization motif residues in TRPM6 (A) Structural model of TRPM7 α-kinase depicting the N-terminal non-catalytic α-helix of one monomer that interacts with the kinase segment of the other monomer. (B) Fluorescence polarization analysis of wild-type (WT) and mutant (Mut) dimerization motif peptides with E. coli-purified GST-tagged TRPM6-(1730–end). […] The samples were analysed by immunoblotting with anti-GST antibody (top panel). […] Proteins were separated by SDS/PAGE, stained with Coomassie Blue (top and middle gels) and MBP phosphorylation was detected by autoradiography (bottom gel). […] Proteins were separated by SDS/PAGE, stained with Coomassie Blue (top and middle gels) and MBP phosphorylation was detected by autoradiography (bottom gel). […] The pull-down samples were analysed by immunoblotting with anti-FLAG antibody (top panel). […]
substance,measurement,setting,value
"biotin-C6-LKSPQEPHHHYSAIERNNLMRLSQ-TIPFTPVQLFAGEEITV [biotinylated dimerization motif peptide, biotin-C6 wild-type dimerization motif peptide; conjugated to streptavidin–Sepharose]",affinity purification of TRPM6-(1730–end) (pull-down),[1],could efficiently purify TRPM6-(1730–end)
same,binding to biotinylated dimerization motif peptide (pull-down),[2],abolished binding to the peptide
same,binding to biotinylated dimerization motif peptide (pull-down),[3],abolished binding to the peptide
same,binding to biotinylated dimerization motif peptide (pull-down),[4],abolished binding to the peptide
same,interaction with biotinylated dimerization motif peptide (pull-down),[5],rendered capable of interacting
